pEC50: −log10 of the molar value.
Biological target: T1, human Farnesoid X Receptor (FXR) ligand binding domain (GST-FXR LBD) (Homo sapiens, UniProt Q96RI1)
T1 construct: purchased Invitrogen
T1 sequence (Q96RI1 193-472 isoform Q96RI1-2): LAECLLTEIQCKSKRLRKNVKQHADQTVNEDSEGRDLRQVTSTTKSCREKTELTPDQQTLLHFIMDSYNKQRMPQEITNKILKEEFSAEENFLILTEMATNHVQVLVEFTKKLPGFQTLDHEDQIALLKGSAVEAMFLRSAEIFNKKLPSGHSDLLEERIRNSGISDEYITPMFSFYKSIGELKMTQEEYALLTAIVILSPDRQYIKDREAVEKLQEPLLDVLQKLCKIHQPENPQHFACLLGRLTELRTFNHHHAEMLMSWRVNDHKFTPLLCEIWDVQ
Experiment: Human GST-FXR LBD co-activator interaction assay (HTRF)
Format: biochemical
Settings: GST-FXR LBD / biotin-SRC-1 peptide FRET; response relative to GW4064; read-out: FXR Co-activator interaction assay (EC50)
From the text: Human GST-FXR LBD Co-activator interaction Assay. The FXR HTRF assay is a biochemical assay measuring the interaction between FXR and a coactivator protein (SRC1). The ligand-induced interaction with a coactivator protein is a critical step in transcriptional activation by FXR. Thus, this is an assay designed to measure FXR agonist activity of compounds.
The ligand-dependent interaction between GST-FXR LBD and a peptide derived from Steroid Receptor Coactivator-1 (SRC-1) was monitored by Fluorescence Resonance Energy Transfer (FRET). […] Test compounds (in DMSO solution) and detection reagents (anti-GST-Cryptate labeled antibody and Streptavidin-XL665 conjugate; CisBio) were added in assay buffer containing 50 mM KF.
A negative control (without Streptavidin-XL665) was run with each assay and represented the background fluorescence. A reference FXR agonist, GW4064, was included in each experiment as positive control. The efficacy of each test compound was compared to that of GW4064. At each concentration, the relative activity of the test compound was expressed as Response %=(Rsample−RDMSO)/(Rpositive−RDMSO), where Rsample is the HTRF response (expressed in Delta F %) for the test compound, Rpositive is the maximal response for GW4064 at saturating concentrations, and RDMSO is the response for DMSO control. The EC50 values were calculated using GraphPad Prism (GraphPad Software) using non-linear regression curve fit (log(agonist) vs. response—variable slope (four parameters)).

Structure (SMILES) | pEC50
O=C(O)c1ccc(N2[C@@H]3CC[C@H]2C[C@H](OCc2c(-c4ccccc4OC(F)(F)F)noc2C2CC2)C3)nc1 [Example 18-3B, 6-[(1R,5S)-3-({5-cyclopropyl-3-[2-(trifluoromethoxy)phenyl]-1,2-oxazol-4-yl}methoxy)-8-azabicyclo[3.2.1]octan-8-yl]pyridine-3-carboxylic acid] | 8.40
Cn1c(C(=O)O)cc2cc(N3C4CC[C@H]3CC(OCc3c(-c5ccccc5OC(F)(F)F)noc3C3CC3)C4)ccc21 (some centres unmarked) [Example 28-19] | 8.82
COc1cc(C(=O)O)cc2sc(N3[C@@H]4CC[C@H]3C[C@@H](OCc3c(-c5ccccc5Cl)noc3C3CC3)C4)nc12 [Example 30-20] | 9.13
COc1cc(C(=O)O)cc2sc(N3C4CC[C@H]3C[C@H](OCc3c(C5CCCCC5)noc3C3CC3)C4)nc12 [Example 9-2] | 7.96
O=C(O)c1cn2nc(N3C4CC[C@H]3CC(OCc3c(-c5ccccc5OC(F)(F)F)noc3C3CC3)C4)ccc2n1 (stereo in doubt) [Example 31-1, 6-(3-((5-Cyclopropyl-3-(2-(trifluoromethoxy)phenyl)isoxazol-4-yl)methoxy)-8-azabicyclo[3.2.1]octan-8-yl)imidazo[1,2-b]pyridazine-2-carboxylic acid] | 7.92
COc1cc(C(=O)O)cc2sc(N3[C@@H]4CC[C@H]3C[C@@H](OCc3c(-c5cccc(F)c5)noc3C3CC3)C4)nc12 [Example 30-8] | 7.68
O=C(O)c1cc(F)c(N2C3CC[C@H]2CC(OCc2c(-c4ccccc4OC(F)F)noc2C2CC2)C3)c(F)c1 (some centres unmarked) [Example 25-1B] | 8.52
O=C(O)c1ccc(N2[C@@H]3CC[C@H]2C[C@H](OCc2c(-c4ccccc4C(F)(F)F)noc2C2CC2)C3)nc1 [Example 18-6B, 6-[(1R,5S)-3-({5-cyclopropyl-3-[2-(trifluoromethyl)phenyl]-1,2-oxazol-4-yl}methoxy)-8-azabicyclo[3.2.1]octan-8-yl]pyridine-3-carboxylic acid] | 8.30
O=C(O)c1cc(F)c(N2[C@@H]3CC[C@H]2C[C@@H](OCc2c(-c4c(F)cccc4F)noc2C2CC2)C3)c(F)c1 [Example 25-4B] | 8.70
Cc1cc(C(=O)O)cnc1N1C2CC[C@H]1CC(OCc1c(-c3ccccc3OC(F)F)noc1C1CC1)C2 (some centres unmarked) [Example 22-7B] | 8.30
COC(=O)c1cc(OC)c2nc(N3C4CC[C@H]3C[C@H](OCc3c(-c5c(F)cccc5F)noc3C3CC3)C4)sc2c1 [Example 6-6A] | 7.85
O=C(O)c1cnc(N2C3CC[C@H]2CC(OCc2c(-c4ccccc4OC(F)F)noc2C2CC2)C3)cn1 (some centres unmarked) [Example 22-11B] | 8.00
COc1cc(C(=O)O)cc2sc(N3C4CC[C@H]3CC(OCc3c(-c5ccccc5C(F)(F)F)noc3C3CC3)C4)nc12 (some centres unmarked) [Example 2-2B] | 8.52
COC(=O)c1cc(C)nc(N2C3CC[C@H]2CC(OCc2c(-c4ccccc4OC(F)F)noc2C2CC2)C3)n1 (some centres unmarked) [Example 22-5] | 7.57
O=C(O)c1ccc(N2[C@@H]3CC[C@H]2C[C@@H](OCc2c(-c4cccc(F)c4F)noc2C2CC2)C3)nc1 [Example 30-65] | 7.07
COC(=O)c1cc(F)c2nc(N3C4CC[C@H]3C[C@H](OCc3c(-c5c(F)cccc5F)noc3C3CC3)C4)sc2c1 [Example 6-7A] | 7.85
COC(=O)c1cc(C)c2nc(N3[C@@H]4CC[C@H]3C[C@@H](OCc3c(-c5c(F)cccc5F)noc3C3CC3)C4)sc2c1 [Example 30-32] | 6.83
COC(=O)c1ccc(N2C3CC[C@H]2CC(OCc2c(-c4ccccc4OC(F)(F)F)noc2C2CC2)C3)c(F)c1 (stereo in doubt) [Example 23A, Methyl 4-(3-((5-cyclopropyl-3-(2-(trifluoromethoxy)phenyl)isoxazol-4-yl)methoxy)-8-azabicyclo[3.2.1]octan-8-yl)-3-fluorobenzoate] | 8.22
O=C(O)c1ccc(N2C3CC[C@H]2CC(OCc2c(-c4ccc(F)cc4F)noc2C2CC2)C3)nc1 (some centres unmarked) [Example 30-63] | 7.24
O=C(NCCS(=O)(=O)O)c1cc(F)c2nc(N3C4CC[C@H]3C[C@H](OCc3c(-c5ccccc5C(F)(F)F)noc3C3CC3)C4)sc2c1 [Example 16-3] | 8.92
COC(=O)c1cc(F)c(N2C3CC[C@H]2CC(OCc2c(-c4ccccc4C(F)(F)F)noc2C2CC2)C3)c(F)c1 (some centres unmarked) [Example 25-2A] | 6.38
O=C(O)c1cnc(N2C3CC[C@H]2CC(OCc2c(-c4ccccc4C(F)(F)F)noc2C2CC2)C3)nc1 (some centres unmarked) [Example 21-2B] | 8.00
Cc1cc(N2C3CC[C@H]2CC(OCc2c(-c4c(F)cccc4F)noc2C2CC2)C3)ncc1C(=O)O (some centres unmarked) [Example 30-26] | 8.15
O=C(O)c1cc(F)c2nc(N3C4CC[C@H]3C[C@H](OCc3c(C5CCCCC5C(F)(F)F)noc3C3CC3)C4)sc2c1 (some centres unmarked) [Example 8-1] | 8.40

Structure (SMILES) | pEC50
Cc1cccc(F)c1-c1noc(C2CC2)c1CO[C@H]1C[C@H]2CC[C@@H](C1)N2c1ccc2nc(C(=O)O)cn2n1 [Example 31-6] | 8.05
Cc1nc(N2C3CC[C@H]2CC(OCc2c(-c4c(F)cccc4Cl)noc2C2CC2)C3)ccc1C(=O)O (some centres unmarked) [Example 30-52] | 7.59
O=C(O)c1ccnc(N2C3CC[C@H]2C[C@H](OCc2c(-c4ccccc4OC(F)(F)F)noc2C2CC2)C3)n1 [Example 19-6B] | 8.15
COC(=O)c1cnc(N2C3CC[C@H]2CC(OCc2c(-c4ccccc4OC(F)F)noc2C2CC2)C3)cc1C (some centres unmarked) [Example 22-4A] | 7.70
Cc1ccccc1-c1noc(C2CC2)c1COC1CC2CC[C@@H](C1)N2c1nc2c(C)cc(C(=O)O)cc2s1 (some centres unmarked) [Example 30-36] | 8.96
O=C(O)c1cnc(N2C3CC[C@H]2CC(OCc2c(-c4ccccc4OC(F)(F)F)noc2C2CC2)C3)s1 (some centres unmarked) [Example 30-75] | 7.77
CCOC(=O)c1ccc2nc(N3C4CC[C@H]3C[C@H](OCc3c(-c5ccccc5OC(F)F)noc3C3CC3)C4)sc2c1 [Example 6-2A] | 7.29
Cc1cc(C(=O)O)nc(N2C3CC[C@H]2CC(OCc2c(-c4c(F)cccc4Cl)noc2C2CC2)C3)n1 (some centres unmarked) [Example 30-19] | 7.64
COC(=O)c1cnc(N2C3CC[C@H]2CC(OCc2c(-c4c(F)cccc4F)noc2C2CC2)C3)c(Br)c1 (some centres unmarked) [Example 22-21] | 7.54
COC(=O)c1cnc(N2C3CC[C@H]2C[C@H](OCc2c(-c4ccccc4OC(F)(F)F)noc2C2CC2)C3)c(Br)c1 [Example 18-1, Methyl 5-bromo-6-((1S,3R)-3-((5-cyclopropyl-3-(2-(trifluoromethoxy)phenyl)isoxazol-4-yl)methoxy)-8-azabicyclo[3.2.1]octan-8-yl)nicotinate] | 8.05
Cc1c(N2C3CC[C@H]2CC(OCc2c(-c4c(F)cccc4F)noc2C2CC2)C3)ccc2oc(C(=O)O)cc12 (some centres unmarked) [Example 28-10] | 9.05
Cc1ccccc1-c1noc(C2CC2)c1COC1CC2CC[C@@H](C1)N2c1nc2c(F)cc(C(=O)O)cc2s1 (some centres unmarked) [Example 30-1] | 9.52
Cc1c(N2[C@@H]3CC[C@H]2C[C@@H](OCc2c(-c4ccccc4C4CC4)noc2C2CC2)C3)ccc2oc(C(=O)O)cc12 [Example 28-8] | 7.98
Cc1cc(C(=O)O)nc(N2C3CC[C@H]2C[C@H](OCc2c(-c4ccccc4OC(F)(F)F)noc2C2CC2)C3)n1 [Example 18-7B] | 8.70
O=C(O)c1nsc2cc(N3C4CC[C@H]3CC(OCc3c(-c5ccccc5OC(F)(F)F)noc3C3CC3)C4)ccc12 (some centres unmarked) [Example 28-1B, 6-(3-((5-Cyclopropyl-3-(2-(trifluoromethoxy)phenyl)isoxazol-4-yl)methoxy)-8-azabicyclo[3.2.1]octan-8-yl)benzo[d]isothiazole-3-carboxylic acid] | 9.22
COc1cc(C(=O)O)cc2sc(N3C4CC[C@H]3CC(OCc3c(-c5ccccc5C)noc3C3CC3)C4)nc12 (some centres unmarked) [Example 30-5] | 9.40
COc1cc(C(=O)O)cc2sc(N3C4CC[C@H]3CC(OCc3c(-c5ccc(F)cc5)noc3C3CC3)C4)nc12 (some centres unmarked) [Example 30-7] | 7.74
COC(=O)c1cc(C)c2nc(N3C4CC[C@H]3CC(OCc3c(-c5ccccc5C(F)(F)F)noc3C3CC3)C4)sc2c1 (some centres unmarked) [Example 30-30] | 6.92
O=C(O)c1cc2nc(N3C4CC[C@H]3CC(OCc3c(-c5ccccc5C(F)(F)F)noc3C3CC3)C4)ccn2n1 (some centres unmarked) [Example 31-4] | 8.40
Cc1cc(C(=O)O)nc(N2C3CC[C@H]2C[C@H](OCc2c(C4CCC5(CC4)CC5)noc2C2CC2)C3)n1 [Example 14] | 7.46
Cc1cc(N2C3CC[C@H]2CC(OCc2c(-c4ccccc4OC(F)F)noc2C2CC2)C3)ncc1C(=O)O (some centres unmarked) [Example 22-4B] | 8.05
O=C(O)c1cncc(N2C3CC[C@H]2C[C@H](OCc2c(-c4ccccc4OC(F)(F)F)noc2C2CC2)C3)n1 [Example 19-5B] | 8.05
O=C(O)c1ccc2nc(N3C4CC[C@H]3CC(OCc3c(-c5ccccc5OC(F)(F)F)noc3C3CC3)C4)sc2c1 (some centres unmarked) [Example 3B] | 9.13
